Data: article PMC6317155, “Identification of Small Peptides that Inhibit NADPH Oxidase (Nox2) Activation” (Antioxidants, 2018)

Experiments:
[1] = molecular target: T1, aiPLA2 activity of recombinant human Prdx6 (Homo sapiens, UniProt P30041); assay: aiPLA2 (PLA2) activity of recombinant human Prdx6 in vitro, 3H-DPPC liposome substrate; format: biochemical; conditions: for Activity (aiPLA2 of recombinant hPrdx6), human-derived peptides: deletions from 16-aa human-derived SP-A peptide, no-peptide control 92.0; for Activity (aiPLA2 of recombinant hPrdx6), human-derived peptides / Activity (aiPLA2 of recombinant hPrdx6), deletion from C-term / Activity (aiPLA2 of recombinant hPrdx6), deletion from N-term: one assay done in duplicate; for Activity (aiPLA2 of recombinant hPrdx6), deletion from C-term: peptides deleted from C-terminus of 16-aa rat-derived SP-A peptide, and scrambled peptide; for Activity (aiPLA2 of recombinant hPrdx6), deletion from C-term / Activity (aiPLA2 of recombinant hPrdx6), deletion from N-term: no-peptide control 94.8; for Activity (aiPLA2 of recombinant hPrdx6), deletion from N-term: peptides deleted from N-terminus of 16-aa rat-derived SP-A peptide, 3H-DPPC liposomes, 60 min
T1 sequence (P30041 1-224): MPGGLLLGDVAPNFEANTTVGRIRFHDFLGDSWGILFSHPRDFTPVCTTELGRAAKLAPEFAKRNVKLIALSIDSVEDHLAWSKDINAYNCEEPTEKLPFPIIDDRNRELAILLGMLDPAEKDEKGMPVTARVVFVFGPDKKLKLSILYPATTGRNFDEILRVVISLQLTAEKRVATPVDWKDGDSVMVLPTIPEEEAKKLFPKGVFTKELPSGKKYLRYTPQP
Description: (§1) The PLA2 activity of Prdx6 was measured as described previously. The substrate was dipalmitoylphosphatidylcholine (DPPC) with ^3H-9,10-palmitate in the sn-2 position of DPPC incorporated into lung surfactant-like liposomes as described above; substrate was incubated with enzyme for 60 min and activity was calculated from the liberation of ^3H-palmitate as measured by scintillation counting.
The effect of the PIP peptides on the aiPLA2 activity of human recombinant Prdx6 was determined by in vitro assay; the effective concentration of inhibitor was corrected for purity of the PIP preparation. Saturating concentrations of all three peptides (PIP-1, PIP-2, PIP-3) inhibited aiPLA2 activity by ~70% (Figure 2). The basis for the remaining 30% of activity that was not inhibited is unclear.

[2] = molecular target: T2, PLA2 activity of Prdx6 (aiPLA2) (Mus musculus, UniProt O08709); assay: PLA2 activity of lung homogenate at pH 4 without Ca2+ (aiPLA2), PIP-2 added to the assay; format: biochemical; conditions: wild type mouse lung homogenate, no Ca2+; no inhibitor 8.7 ± 0.16; mean ± range, n = 2
T2 construct: from tissue; host or cells: mouse (C57Bl/6) lung homogenate
T2 sequence (O08709 2-224): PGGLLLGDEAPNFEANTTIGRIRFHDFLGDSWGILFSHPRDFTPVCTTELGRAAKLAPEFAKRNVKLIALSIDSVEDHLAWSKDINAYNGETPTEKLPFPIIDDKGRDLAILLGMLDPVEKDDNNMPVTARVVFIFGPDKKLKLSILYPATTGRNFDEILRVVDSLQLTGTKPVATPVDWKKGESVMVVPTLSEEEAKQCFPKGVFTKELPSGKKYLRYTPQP
Description: as §1
(§2) Lung cells, like those of other organs, have multiple PLA2 enzymes. We evaluated the specificity of PIP-2 for inhibition of Prdx6 by measuring aiPLA2 activity in the lung homogenate of wild type and D140A-Prdx6 mutant mice. […] Measurement of PLA2 activity at pH 4 in the absence of Ca^2+ is relatively specific for the PLA2 activity of Prdx6 (aiPLA2). This activity was inhibited by 91% following addition of PIP-2 to the assay of the lung homogenate (Table 6). Although Prdx6 has relatively little PLA2 activity when measured at pH 7, other lung PLA2 enzymes, some of which are Ca^2+-dependent for activity, show activity at neutral pH; this activity was not affected by mutation of D140 in Prdx6 (Table 6). Unlike the effect of PIP-2 on aiPLA2 activity at pH 4, the addition of PIP-2 had no effect on activity of the lung PLA2 enzymes that are active at pH 7. Thus, aiPLA2 appears to be the only PLA2 enzyme, at least in the lung, that is inhibited by PIP-2.

[3] = molecular target: T3, PLA2 activity of Prdx6 (aiPLA2) (Mus musculus, UniProt O08709, D140A); assay: as above; format: biochemical; conditions: D140A-Prdx6 knock-in mouse lung homogenate, no Ca2+; no inhibitor 0.2 ± 0.03; mean ± range, n = 2
T3 construct: from tissue; host or cells: mouse (C57Bl/6) lung homogenate
T3 sequence (O08709 2-224 D140A): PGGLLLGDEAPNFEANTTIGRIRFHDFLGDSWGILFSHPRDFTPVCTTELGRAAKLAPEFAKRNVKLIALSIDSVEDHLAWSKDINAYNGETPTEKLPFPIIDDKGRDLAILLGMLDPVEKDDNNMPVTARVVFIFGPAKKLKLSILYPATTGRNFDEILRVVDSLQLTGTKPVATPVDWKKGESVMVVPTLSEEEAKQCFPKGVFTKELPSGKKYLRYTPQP
Description: as §1, §2

[4] = molecular target: T1, aiPLA2 activity of recombinant human Prdx6; assay: Chemical stability of dry powder on laboratory shelf, read out as inhibition of aiPLA2 activity; format: physicochemical; conditions: room temperature, nine months, data not shown
Excerpt: These peptides have a molecular mass of 1156–1178 with a predicted isoelectric point in the slightly basic range. Each of the three peptides contains four hydrophobic amino acid residues, with two of those on the same surface, and one negatively charged hydrophilic aa. The PIP-2 sequence has three while PIPs-1 and -3 have only two positively charged aa. PIP-1 is slightly more hydrophobic than the other two peptides but, in our experience, all three peptides readily dissolve in aqueous solution. […] No antigenic determinants were identified in these peptides as determined by the free on-line program provided by the Immunomedicine Group of the Universidad Complutense (Madrid, Spain). The chemical stability of PIP-2 was tested by placing the dry powder on the laboratory shelf at room temperature; its inhibition of the aiPLA2 activity of recombinant human Prdx6 was unchanged when measured after nine months of shelf storage indicating good stability of the peptide as a dry powder (data not shown); stability of the other peptides was not tested.

[5] = molecular target: T4, aiPLA2 activity of lung homogenate (Mus musculus, UniProt O08709); assay: aiPLA2 activity of homogenate of isolated mouse lungs perfused with PIP-2; conditions: inferred from lack of effect without liposomal carrier in lungs
T4 construct: from tissue; host or cells: mouse (C57Bl/6) lung homogenate
T4 sequence (O08709 1-224): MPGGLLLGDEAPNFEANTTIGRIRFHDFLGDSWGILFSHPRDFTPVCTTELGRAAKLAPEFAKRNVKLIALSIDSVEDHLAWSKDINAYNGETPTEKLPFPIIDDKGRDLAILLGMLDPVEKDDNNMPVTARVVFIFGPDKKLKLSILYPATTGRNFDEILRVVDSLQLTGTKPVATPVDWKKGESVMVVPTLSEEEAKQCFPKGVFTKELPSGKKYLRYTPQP
Description: as §1
To confirm the requirement for liposomes as a delivery vehicle, lungs were perfused for 15 min with PIP-2 incorporated or not into liposomes, then perfused with fresh medium to clear extracellular PIP-2, and then homogenized and assayed for aiPLA2 activity. PIP-2 administered without liposomes had no effect on aiPLA2 activity of the lung homogenate while PIP-2 in liposomes inhibited activity by ~80% (Table 5).

lung aiPLA2 activity = molecular target: T5, lung aiPLA2 activity (Mus musculus, UniProt O08709); assay: Lung aiPLA2 activity after a single IT or IV dose in mice in vivo; conditions: single dose in liposomes, estimated
T5 construct: from tissue; host or cells: mouse (C57Bl/6) lung homogenate
T5 sequence (O08709 1-224): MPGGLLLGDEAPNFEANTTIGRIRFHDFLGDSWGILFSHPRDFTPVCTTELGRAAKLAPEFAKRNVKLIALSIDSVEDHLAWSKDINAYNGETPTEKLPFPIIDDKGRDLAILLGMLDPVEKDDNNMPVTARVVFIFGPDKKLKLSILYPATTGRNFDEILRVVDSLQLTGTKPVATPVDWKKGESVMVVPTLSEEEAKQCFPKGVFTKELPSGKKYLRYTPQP
Description: For administration to mice, peptides were incorporated into liposomes that were prepared as previously described. Liposome composition was dipalmitoylphosphatidylcholine (DPPC): egg phosphatidylcholine: phosphatidylglycerol: cholesterol in the molar ratio 50:25:10:15. To measure the in vivo effect of the peptides, mice were injected with PIP-2 by either the intratracheal (IT) or the intravenous (IV) route and were sacrificed at intervals; lungs were removed from mice and homogenized for measurement of aiPLA2 activity.
as §1
To determine the effect and duration of a single dose of PIP-2 on aiPLA2 activity of mouse lungs in vivo, mice were injected with PIP-2 in liposomes by either the intratracheal (IT) or the intravenous (IV) route; individual lungs were removed at intervals, homogenized, and assayed for aiPLA2 activity. […]
Figure 4 Persistence and stability of PIP-2 in vivo. […] Lungs were harvested at intervals between 4 and 72 h after the PIP-2 administration, homogenized, and analyzed for aiPLA2 activity. […]

[6] = tested on: lung PLA2 enzymes that are active at pH 7; assay: PLA2 activity of lung homogenate at pH 7 with Ca2+ (other lung PLA2 enzymes), PIP-2 added to the assay; format: biochemical, mouse
Description: as §1, §2

DEELQATLHDFRHQIL [16 aa human SP-A-derived peptide]
Activity (aiPLA2 of recombinant hPrdx6), human-derived peptides [1]: 45.0 nmol/min/mg Prot.

DEELQTEL [8-aa C-terminal deletion of rat 16-aa peptide]
Activity (aiPLA2 of recombinant hPrdx6), deletion from C-term [1]: 93.6 nmol/min/mg Prot.

DEELQTELYEIKHQ [14-aa C-terminal deletion of rat 16-aa peptide]
Activity (aiPLA2 of recombinant hPrdx6), deletion from C-term [1]: 102 nmol/min/mg Prot.

DEELQTELYEIKHQIL
Activity (aiPLA2 of recombinant hPrdx6), deletion from C-term [1]: 32.0 nmol/min/mg Prot. | Activity (aiPLA2 of recombinant hPrdx6), deletion from N-term [1]: 32.0 nmol/min/mg Prot.

ELQTELYEIKHQIL [14-aa N-terminal deletion of rat 16-aa peptide]
Activity (aiPLA2 of recombinant hPrdx6), deletion from N-term [1]: 33.2 nmol/min/mg Prot.

ELYEIKHQI [9-aa peptide lacking the C-terminal Leu]
Activity (aiPLA2 of recombinant hPrdx6), deletion from C-term [1]: 89.6 nmol/min/mg Prot.

ELYEIKHQIL [10-aa N-terminal deletion of rat 16-aa peptide]
Activity (aiPLA2 of recombinant hPrdx6), deletion from N-term [1]: 28.6 nmol/min/mg Prot.

LELDEEITEYQKQLHI [Scrambled peptide, scrambled 16-aa control peptide, reference compound]
Activity (aiPLA2 of recombinant hPrdx6), deletion from C-term [1]: 93.5 nmol/min/mg Prot.

LHDFRHQIL [PIP-2]
Activity (aiPLA2 of recombinant hPrdx6), human-derived peptides [1]: 29.9 nmol/min/mg Prot. | Inhibition of aiPLA2 activity at saturating concentrations of peptide ([1]; recombinant human Prdx6, Figure 2, mean + SEM, n = 3): ~ 70% | Concentration of peptide for inhibition of aiPLA2 activity by 50% ([1]; recombinant human Prdx6, concentration corrected for purity of the PIP preparation, Figure 2, n = 3): ~ 6.6 µg/mg Prdx6 | PLA2 activity, pH 4, WT [2]: 1.6 ± 0.10 nmol/min/mg Prot. | PLA2 activity, pH 4, D140A-Prdx6 [3]: 0.2 ± 0.06 nmol/min/mg Prot. | Chemical stability: inhibition of aiPLA2 activity after shelf storage [4]: unchanged | Ability to cross the cell membrane [5]: not able to cross the cell membrane | Half-time for recovery of lung aiPLA2 activity (decrease of in vivo inhibition) (lung aiPLA2 activity): ~ 50 h | PLA2 activity, pH 7 + Ca2+, D140A-Prdx6 ([6]; D140A-Prdx6 knock-in mouse lung homogenate, no inhibitor 8.3 ± 0.26, mean ± range, n = 2): 8.5 ± 0.10 nmol/min/mg Prot. | Effect on activity of lung PLA2 enzymes active at pH 7 ([6]; PIP-2 added to assay of lung homogenate): no effect
